The target of test [1] is T1, wild-type Androgen Receptor (AR-wt) (Homo sapiens, UniProt P10275).
T1 construct: expressed in transfected cells; host or cells: LNCaP
T1 sequence (P10275 1-920): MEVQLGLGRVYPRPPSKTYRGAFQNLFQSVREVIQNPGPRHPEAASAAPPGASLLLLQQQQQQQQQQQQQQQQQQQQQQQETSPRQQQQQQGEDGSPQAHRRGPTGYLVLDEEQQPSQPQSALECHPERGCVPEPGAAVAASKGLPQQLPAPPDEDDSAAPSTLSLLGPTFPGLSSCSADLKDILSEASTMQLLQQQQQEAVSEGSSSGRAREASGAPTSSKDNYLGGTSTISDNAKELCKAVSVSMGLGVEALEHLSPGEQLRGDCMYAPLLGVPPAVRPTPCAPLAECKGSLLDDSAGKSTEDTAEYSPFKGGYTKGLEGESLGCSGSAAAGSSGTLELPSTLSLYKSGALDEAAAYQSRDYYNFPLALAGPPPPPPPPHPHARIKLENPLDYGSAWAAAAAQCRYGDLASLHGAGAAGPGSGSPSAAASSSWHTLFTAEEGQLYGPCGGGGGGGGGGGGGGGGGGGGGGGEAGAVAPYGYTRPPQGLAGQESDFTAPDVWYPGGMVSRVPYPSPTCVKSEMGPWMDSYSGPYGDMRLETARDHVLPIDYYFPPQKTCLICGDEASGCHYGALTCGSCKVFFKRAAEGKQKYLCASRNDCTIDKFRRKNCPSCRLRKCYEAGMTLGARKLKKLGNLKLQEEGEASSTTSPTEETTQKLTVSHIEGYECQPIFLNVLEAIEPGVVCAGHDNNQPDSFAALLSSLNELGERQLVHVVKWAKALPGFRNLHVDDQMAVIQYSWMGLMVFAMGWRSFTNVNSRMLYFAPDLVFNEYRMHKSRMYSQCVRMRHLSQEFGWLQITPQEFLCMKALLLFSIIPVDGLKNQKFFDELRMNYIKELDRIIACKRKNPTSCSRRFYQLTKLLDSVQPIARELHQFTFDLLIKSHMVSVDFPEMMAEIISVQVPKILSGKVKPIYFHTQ
Put plainly: AR reporter assay, LNCaP-AR-wt AG (agonist mode). The class given is cell-based. The conditions noted are these: for Emax: read-out: LNCaP-AR-wt AG MAX % Stim. An excerpt:
(§1) LNCaP AR (cs) and LNCaP F876L luciferase cell lines were generated by transduction of each cell line (description of cell line generation Joseph J D, Lu N, Qian J, Sensintaffar J, Shao G, Brigham D, Moon M, Maneval E C, Chen I, Darimont B, Hager J H. A clinically relevant androgen receptor mutation confers resistance to second-generation antiandrogens enzalutamide and ARN-509. Cancer Discov 2013; 3:1020-1029) with an Androgen Response Element Firefly Luciferase lentiviral construct at an MOI (multiplicity of infection) of 50 following the manufacturer's instructions (Qiagen). A stable pooled-population cell line was generated using puromycin (Life Technologies) selection at 1:10,000 v/v. The protocol below was used for both cell lines and for testing of the compounds of Formula (I) of the present invention.
(§2) LNCaP cells were grown to about 80% confluence, media removed and cells rinsed in Hank's balanced salt solution prior to separation from the plate with 0.05% Trypsin EDTA. Cells were lifted and trypsin negated in complete CSS (charcoal stripped serum) culture media. CSS was maintained on cells for 24 h prior to assay, at which time 5,000 cells/[…] were seeded in Greiner 384 well White/White Tissue Culture Treated Plates and incubated for a further 1-2 hours at 37° C., 5% CO2, prior to addition of 10 μL of 4× Test Compounds (compounds described herein) or Assay Controls (all diluted in complete media containing 10% css). A further 10 μL of 4× R-1881 Agonist Challenge (antagonist assay) or Buffer (agonist assay) was then added (all diluted in complete media containing 10% css). Agonist challenge was at 400 pM for WT assay and 600 pM for F876L assay. Plates containing cells and compounds herein were incubated for a further 20-24 hours at 37° C., 5% CO2 before addition of 40 μL/well of Steady-Glo Luciferase Assay System Reagent (Promega#E2520). After 1 h, plates were read for luminescence on a BMG Pherastar.
((Sample RLU−Ave Low Control RLU[DMSO/Buffer])/(Ave High Control RLU [1 μM R-1881]—Ave Low Control RLU[DMSO/Buffer]))*100.
(§3) EC/IC50 calculations were achieved utilizing calculated RLU data and data fitting macros. Data were fit using least-squares methods to the following formula: […]
(§4) As used herein: • pIC50 is defined as −Log10(IC50 expressed in [Molar]). • pEC50 is defined as −Log10(EC50 expressed in [Molar]). • MAX % Inh is defined as the maximum % inhibition of R1881 control response observed for a compound over the tested concentration range. • MAX % Stim is defined as the maximum % stimulation (agonist response) observed for a compound over the tested concentration range. • LNCaP-AR-wt ANT refers to the reporter assay using LNCaP cells stably transfected with the Androgen Response Element Firefly Luciferase lentiviral construct and wild-type Androgen Receptor (AR-wt) in Antagonist mode. • LNCaP-AR-wt AG refers to the reporter assay using LNCaP cells stably transfected with the Androgen Response Element Firefly Luciferase lentiviral construct and wild-type Androgen Receptor (AR-wt) in Agonist mode. • LNCaP-AR-F876L ANT refers to the reporter assay using LNCaP cells stably transfected with the Androgen Response Element Firefly Luciferase lentiviral construct and F876L mutant Androgen Receptor (AR-F876L) in Antagonist mode. • LNCaP-AR-F876L AG refers to the reporter assay using LNCaP cells stably transfected with the Androgen Response Element Firefly Luciferase lentiviral construct and F876L mutant Androgen Receptor (AR-F876L) in Agonist mode.
(Reporter assays use an easily measured gene product as a stand-in for the process of interest.)

The target of test [2] is T1, wild-type Androgen Receptor (AR-wt). Description: AR reporter assay, LNCaP-AR-wt ANT (antagonist mode). The class given is cell-based. To be noted: for Emax: read-out: LNCaP-AR-wt ANT MAX % Inh.
Excerpt: as §1, §2
Agonist challenge: R-1881 (Metribolone)—Agonist
Antagonist control (low control): 5-(5-(4-((1-Methylpiperidin-4-yl)oxy)phenyl)-8-oxo-6-thioxo-5,7-diazaspiro[3.4]octan-7-yl)-3-(trifluoromethyl)picolinonitrile (WO 2011/103202, EXAMPLE 19, Compound 129, CAS #1332390-06-3).
(1−(Sample RLU−Ave Low Control RLU[10 μM Antagonist Control])/(Ave High Control RLU [400 pM R-1881]−Ave Low Control RLU[10 μM Antagonist Control]))*100.
as §3, §4

Counter-ions that a name gives are not always drawn. A value given as a limit tells only on which side of the number the result lay.

Consider twelve compounds from patent US20190337924A1, “SUBSTITUTED HYDANTOIN AND THIOHYDANTOIN DERIVATIVES AS ANDROGEN RECEPTOR ANTAGONISTS” (Janssen Pharmaceutica NV, priority 2016, published 2019).

As a reminder, the EC50 is the concentration giving half of the maximal effect. The low end stands for greater potency, the high end for weaker potency. As usually defined, the IC50 is the concentration that gives 50% inhibition. High values mean a need for much substance, low ones inhibition by little substance. Regarding `CC1(C)C(=O)N(c2ccc(C#N)c(C(F)(F)F)c2)C(=S)N1c1ccc(OC2CCNCC2)cc1` [Compound 1, 4-(4,4-Dimethyl-5-oxo-3-(4-(piperidin-4-yloxy)phenyl)-2-thioxoimidazolidin-1-yl)-2-(trifluoromethyl)benzonitrile], in test [1], the EC50 is greater than 15100 nM and the Emax was determined as 0.6%. In test [2], inhibition was half-maximal at 75.9 nM (IC50) and the Emax was 106%.
Consider `CN1CCC(Oc2ccc(N3C(=S)N(c4ccc(C#N)c(C(F)(F)F)c4)C(=O)C3(C)C)cc2)CC1` [Compound 2, 4-(4,4-Dimethyl-3-(4-((1-methylpiperidin-4-yl)oxy)phenyl)-5-oxo-2-thioxoimidazolidin-1-yl)-2-(trifluoromethyl)benzonitrile hydrochloride], for which, in test [1], the EC50 is greater than 15100 nM and the Emax was -0.2%. Moreover, in test [2], inhibition was half-maximal at 97.7 nM (IC50) and the Emax amounted to 104%.
Taken in the same sequence, the figures for `CC1(C)C(=O)N(c2ccc(C#N)c(C(F)(F)F)c2)C(=S)N1c1ccc(OC2CCNCC2)nc1` [Compound 3, 4-(4,4-Dimethyl-5-oxo-3-(6-(piperidin-4-yloxy)pyridin-3-yl)-2-thioxoimidazolidin-1-yl)-2-(trifluoromethyl)benzonitrile hydrochloride] were greater than 15100 nM, 0.5%, 46.8 nM and 103%.
On to `CN1CCC(Oc2ccc(N3C(=S)N(c4ccc(C#N)c(C(F)(F)F)c4)C(=O)C3(C)C)cn2)CC1` [Compound 4, 4-(4,4-Dimethyl-3-(6-((1-methylpiperidin-4-yl)oxy)pyridin-3-yl)-5-oxo-2-thioxoimidazolidin-1-yl)-2-(trifluoromethyl)benzonitrile hydrochloride], for which, in test [1], the EC50 is greater than 15100 nM and the Emax stood at 0.1%. Besides, in test [2], the 50% inhibitory concentration (IC50) was 89.1 nM and the Emax stood at 102%.
Turning to `CC1(C)C(=O)N(c2ccc(C#N)c(C(F)(F)F)c2)C(=S)N1c1cnc(OC2CCNCC2)nc1` [Compound 5, 4-(4,4-Dimethyl-5-oxo-3-(2-(piperidin-4-yloxy)pyrimidin-5-yl)-2-thioxoimidazolidin-1-yl)-2-(trifluoromethyl)benzonitrile], in test [1], the EC50 was greater than 15100 nM and the Emax amounted to 0.1%. For the same compound, in test [2], the IC50 was 170 nM and the Emax turned out to be 101%.
Taken in the same sequence, the figures for `CN1CCC(Oc2ncc(N3C(=S)N(c4ccc(C#N)c(C(F)(F)F)c4)C(=O)C3(C)C)cn2)CC1` [Compound 6, 4-(4,4-Dimethyl-3-(2-((1-methylpiperidin-4-yl)oxy)pyrimidin-5-yl)-5-oxo-2-thioxoimidazolidin-1-yl)-2-(trifluoromethyl)benzonitrile] were greater than 15100 nM, 0.8%, 91.2 nM and 102%.
Taken in the same sequence, the figures for `CC1(C)C(=O)N(c2ccc(C#N)c(Cl)c2)C(=S)N1c1ccc(OC2CCNCC2)cc1` [Compound 7, 2-Chloro-4-(4,4-dimethyl-5-oxo-3-(4-(piperidin-4-yloxy)phenyl)-2-thioxoimidazolidin-1-yl)benzonitrile hydrochloride] were greater than 15100 nM, 0%, 61.7 nM and 101%.
Taken in the same sequence, the figures for `CN1CCC(Oc2ccc(N3C(=S)N(c4ccc(C#N)c(Cl)c4)C(=O)C3(C)C)cc2)CC1` [Compound 8, 2-Chloro-4-(4,4-dimethyl-3-(4-((1-methylpiperidin-4-yl)oxy)phenyl)-5-oxo-2-thioxoimidazolidin-1-yl)benzonitrile hydrochloride] were greater than 15100 nM, 0.1%, 81.3 nM and 103%.
Turning to `CC1(C)C(=O)N(c2ccc(C#N)c(Cl)c2)C(=S)N1c1ccc(OC2CCNCC2)nc1` [Compound 9, 2-Chloro-4-(4,4-dimethyl-5-oxo-3-(6-(piperidin-4-yloxy)pyridin-3-yl)-2-thioxoimidazolidin-1-yl)benzonitrile hydrochloride], in test [1], the EC50 is greater than 15100 nM and the Emax was -0.2%. In test [2], the IC50 is 57.5 nM and the Emax amounted to 102%.
Taken in the same sequence, the figures for `CN1CCC(Oc2ccc(N3C(=S)N(c4ccc(C#N)c(Cl)c4)C(=O)C3(C)C)cn2)CC1` [Compound 10, 2-Chloro-4-(4,4-dimethyl-3-(6-((1-methylpiperidin-4-yl)oxy)pyridin-3-yl)-5-oxo-2-thioxoimidazolidin-1-yl)benzonitrile hydrochloride] were greater than 15100 nM, 0.1%, 63.1 nM and 102%.
On to `N#Cc1ccc(N2C(=O)C3(CCC3)N(c3ccc(OC4CCNCC4)cc3)C2=S)cc1C(F)(F)F` [Compound 11, 4-(8-Oxo-5-(4-(piperidin-4-yloxy)phenyl)-6-thioxo-5,7-diazaspiro[3.4]octan-7-yl)-2-(trifluoromethyl)benzonitrile], for which, in test [1], the EC50 is greater than 15100 nM and the Emax worked out at 0.1%. Further, in test [2], the IC50 is 331 nM and the Emax was 105%.
As to `CN1CCC(Oc2ccc(N3C(=S)N(c4ccc(C#N)c(C(F)(F)F)c4)C(=O)C34CCC4)cc2)CC1` [Compound 12, 4-(5-(4-((1-Methylpiperidin-4-yl)oxy)phenyl)-8-oxo-6-thioxo-5,7-diazaspiro[3.4]octan-7-yl)-2-(trifluoromethyl)benzonitrile], in test [1], the half-maximal effective concentration (EC50) is greater than 15100 nM and the Emax worked out at 0.4%. In addition, in test [2], the IC50 was 324 nM and the Emax stood at 104%.
